{"source": "patent US12378500B2", "about": "“Liquid laundry product comprising a fragrance composition comprising isopulegol” (TAKASAGO INTERNATIONAL CORPORATION, priority 2016, dated 2025)", "tested_on": "human brain", "assay": "CNV (Contingent Negative Variation) method, inhalation of fragrance compositions by a panel of subjects", "assay_type": "in vivo", "settings": "2 wt % isopulegol added to fragrance A; fragrance A as control; inhaled; panel of 7 subjects; FIG. 3", "experimental": "The stimulating effect of isopulegol was determined by the CNV (Contingent Negative Variation) method as described below and briefly summarized in FIGS. 1 and 2.\nThe CNV was measured using a digital electroencephalograph BIOSEMi (registered trademark). Electrodes for the CNV measurement were placed at Fp1, Fp2, F4, Fz, F3, T7, C3, Cz, C4, T8, P4, Pz, P3, O1, Oz, O2 according to the international 10-20 system, electrodes for ear lobes were set to indifferent electrodes, and brain waves were recorded at a time constant of 5.0 seconds referenced to the linked earlobes. In order to check artifacts of eye movement to a brain wave, vertical and horizontal movements of the left eye were also recorded.\nConfirmation of a stimulative effect of a sample was conducted by steps of delivering a warning stimulus S1 (tone of 60-65 dB), followed 2300 ms later by a second stimulus S2 (light source). Test fragrance compositions were inhaled from jars disposed a few (e.g. 15-20) centimetres from the subjects' nose during each period of acquisition. […] The base line was determined from an average voltage of a brain wave in a time period of 500 ms before S1. The evaluation of the CNV waveform was conducted according to the method of Tori et al. (op. cit.), in which CNV was evaluated by the area (unit: ms×[…]) of an early component between 400 ms to 1,000 ms after the warning sound stimulus (S1)."}
{"smiles": "C=C(C)[C@@H]1CC[C@@H](C)C[C@H]1O", "note": "(racemic) [isopulegol]", "values": [{"measurement": "CNV activity (area under the curve) of fragrance A + isopulegol versus fragrance A alone", "result": "enhances the CNV activity of fragrance A"}]}
